Experimental data: patent EP4763837A1, “PHOTOCHROMIC COMPOUND, CURABLE COMPOSITION, OPTICAL ARTICLE, LENS, AND EYEGLASSES” (TOKUYAMA CORPORATION, priority 2023, dated 2025)
Where “and” joins values, the source holds several entries; their conditions need not be identical. Identical values can stand only once.

What was measured:
Format in all cases: physicochemical
[1] = Photochromic property of photochromic laminate made by coating method; details: for Residual ratio: laminate by coating method, A96/A0 x 100 after 96 hours accelerated degradation, xenon weather meter X25
Procedure, shortened: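 Compound at 0.25 mmol per 100 g methacrylate monomer mix, spin-coated 40 µm on a primed thiourethane lens, photocured 90 s under N2, then 110°C for 1 h. λmax and A23 measured after 240 s irradiation at 23°C; τ1/2 is time to half-fade after irradiation stops. Residual ratio A96/A0 after 96 h xenon weathering.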

[2] = Photochromic property of binder sheet (photochromic layer made by binder method); details: for Residual ratio: A96/A0 x 100 after 96 hours accelerated degradation, xenon weather meter X25; for Color developing density at 23°C: absorbance difference after 240 seconds irradiation at the maximum absorption wavelength of the same line
Procedure: (§1) The resulting photochromic laminates were evaluated by the below-mentioned methods. • (1) Photochromic property • [1] Maximum absorption wavelength (λmax): This is the maximum absorption wavelength after color development determined by a spectrophotometer manufactured by Otsuka Electronics Co., Ltd. (instantaneous multichannel photo detector MCPD3000) and was used as an index of a color tone upon color development. • [2] Color developing density at 23°C (A23): This is a difference between an absorbance {ε(240)} after irradiation with light at 23°C for 240 seconds and an absorbance ε(0) when not irradiated with light at the maximum absorption wavelength and was used as an index of a color developing density. The higher this value is, the better a photochromic property is. • [3] Color fading half-life at 23°C [τ1/2 (sec).)]: This is a period of time taken by an absorbance at the maximum absorption wavelength of a sample to decrease to 1/2 of {ε(240)-ε(0)} when irradiation is stopped after irradiation with light at 23°C for 240 seconds, and was used as an index of a color fading rate. The shorter this period of time is, the faster the color fading rate is. • [4] Residual ratio (A96/A0 x 100): The resulting photochromic plastic lens was subjected to accelerated degradation for 96 hours using a xenon weather meter X25 manufactured by Suga Test Instruments Co., Ltd. Color developing densities were then evaluated before and after a test, and a color developing density before the test (A0) and a color developing density after the test (A96) were measured. A ratio (A96/A0) was determined as a residual ratio and was used as an index of color development durability. The higher the residual ratio is, the more durable the color development is.
A binder sheet was produced as follows. The binder sheet was made by laminating a first optical sheet, a first adhesive layer, a photochromic layer, a second adhesive layer, and a second optical sheet in this order. A polycarbonate sheet with a thickness of 400 µm was used as the first optical sheet and the second optical sheet.
A 2 L four-necked flask equipped with a stirring blade, a condense tube, a thermometer, and a nitrogen gas inlet tube was charged with 315 parts by mass of polycarbonate diol with a number average molecular weight of 1000, 100 parts by mass of isophorone diisocyanate, and 72 parts by mass of toluene and reacted under a nitrogen atmosphere at 100°C for 7 hours. Thus, a urethane prepolymer with a terminal isocyanate group was synthesized. After the reaction of the above-mentioned urethane prepolymer was completed, the resulting reaction liquid was cooled to about 0°C and dissolved in 205 parts by mass of tertiary-butyl alcohol and 382 parts by mass of diethyl ketone, and then a temperature of the resulting liquid was kept at 0°C. Next, a mixed solution of 21.3 parts by mass of bis-(4-aminocyclohexyl)methane serving as a chain extender and 20 parts by mass of diethyl ketone was added dropwise thereto within 30 minutes and reacted at 0°C for 1 hour. Then, 8.1 parts by mass of 1,2,2,6,6-pentamethyl-4-aminopiperidine was added dropwise thereto and reacted at 0°C for 1 hour to obtain a solution of a terminal non-reactive urethane urea resin in diethylketone.
One hundred parts by mass of the resulting solution of a terminal non-reactive urethane urea resin, 6.3 parts by mass of Example 1 (a photochromic compound represented by Formula (1-7), an isomer mixture of 4,4'-methylenebis(cyclohexylisocyanate) (polyisocyanate compound)), 0.4 parts by mass of ethylenebis(oxyethylene) bis[3-(5-tert-butyl-4-hydroxy-m-tolyl) propionate] serving as an antioxidant, and 0.06 parts by mass of L-7001 manufactured by DuPont Toray Specialty Materials K.K. serving as a surfactant were added and stirred and mixed at room temperature to obtain a composition for forming a photochromic layer. […]

[3] = Photochromic property of photochromic cured product made by kneading method; details: for Residual ratio: A96/A0 x 100 after 96 hours accelerated degradation, xenon weather meter X25; for Color developing density at 23°C: absorbance difference after 240 seconds irradiation at the maximum absorption wavelength of the same line
Procedure: as §1
First, the photochromic compound obtained in Example 1, an additive, and a polymerizable compound were mixed to obtain a curable composition. The polymerizable compound was a combination of the following polymerizable monomers: • · 1,3-Bis(isocyanatomethyl)cyclohexane: 36.7 parts by mass • · Pentaerythritol tetrakis(3-mercaptopropionate): 39.4 parts by mass • · Polyoxyethylene polyoxypropylene lauryl ether (WONDERSURF 140 manufactured by AOKI OIL INDUSTRIAL Co., Ltd.): 17.4 parts by mass • · 1-Decanethiol: 2.8 parts by mass • · RX-1 prepared by the method described in Patent Document 14: 3.8 parts by mass
Note that, in the curable composition, the photochromic compound was added in an amount of 0.106 mmol taking a total amount of the polymerizable monomers as 100 g.
The following additives were used: • · Dimethyltin dichloride: 0.05 parts by mass • · Irganox 245: 0.1 parts by mass • · 2-Ethylhexyl […]: 0.6 parts by mass
After the thus-prepared curable composition was thoroughly defoamed, it was poured into a glass mold with a gap of 1 mm and polymerized by casting polymerization. […] After the polymerization, the resulting cured product was removed from the glass mold to obtain a photochromic cured product with a thickness of 1 mm. The resulting photochromic cured product was evaluated in the same manner as for Example 23.
Photochromic cured products were produced using the photochromic compounds shown in Table 4 in the same manner as in Example 50.

| Color fading half-life at 23°C [1] | Residual ratio [2] | Color developing density at 23°C [2] | Residual ratio [3] | Color developing density at 23°C [3] | Residual ratio [1] | Compound |
| --- | --- | --- | --- | --- | --- | --- |
| 0.717 min | 90% | 0.76 - and 0.75 - | 79% and 77% | 0.77 - and 0.74 - |  | CCCC1(CC)c2ccccc2-c2c1c1c(c3cc(OC)c(Sc4c(C)cccc4C)cc23)OC(c2ccc(OC)cc2)(c2ccc(N3CCOCC3)cc2)C=C1 (stereo not drawn) [Formula (4-5)] |
|  | 82% and 83% | 0.74 - and 1.05 - | 72% and 71% | 0.75 - and 1.05 - | 63% | CCC1(C)c2ccccc2-c2c1c1c(c3cc(OC)c(-c4ccc(OC)cc4OC)cc23)OC(c2ccc(OC)cc2)(c2ccc(N(C)c3ccccc3)cc2)C=C1 (stereo not drawn) [Formula (13-2)] |
| 1.65 min |  | 0.89 - and 0.83 - | 78% | 0.90 - and 0.89 - | 68% | CCCCC1(CC)c2ccccc2-c2c1c1c(c3cc(OC)c(C)cc23)OC(c2ccc(OC)cc2)(c2ccc(OCCC)cc2)C=C1 (stereo not drawn) [Formula (2-2)] |
| 2.28 min | 82% | 0.65 - and 1.11 - | 71% | 0.66 - and 1.10 - | 62% | CCCC1(C)c2cc(C)ccc2-c2c1c1c(c3cc(C)ccc23)OC(c2ccc(C)cc2)(c2ccc(OC)cc2)C=C1 (stereo not drawn) [Formula (1-5)] |
